Experimental data taken from patent US20040024215A1, “Benzamide derivatives and their use as apob-100 and mtp inhibitors” (priority 2000, published 2004).

Experiments:
human MTP = human MTP (Homo sapiens, UniProt P55157); experiment: human MTP activity assay (SPA, 3H-triolein transfer between liposomes); assay type: biochemical; conditions: 3H-triolein transfer from donor to acceptor liposomes, 25 min incubation at 37° C., streptavidin-SPA beads
Method: The ability of the compounds of this invention to inhibit human MTP activity is measured by an in vitro assay where MTP tranfers 3H-triolein between phosphatidylcholine liposomes. The specificity of the compounds of the invention is established by comparing the effects on apoB-100 and apoprotein A-1 production. A specificity of at least 100 is preferred.
The human MTP activity assay was established using SPA technology. Donor liposomes were prepared with 3H-triolein and phosphatidylcholine, while acceptor liposomes contained biotinylated phosphatidylethanolamine and phosphatidylcholine. The MTP-mediated 3H-triolein transfer onto acceptor liposomes was allowed by a 25 min incubation at 37° C., and quantified by the addition of streptavidin-SPA beads.

Sequence of human MTP (P55157 19-894): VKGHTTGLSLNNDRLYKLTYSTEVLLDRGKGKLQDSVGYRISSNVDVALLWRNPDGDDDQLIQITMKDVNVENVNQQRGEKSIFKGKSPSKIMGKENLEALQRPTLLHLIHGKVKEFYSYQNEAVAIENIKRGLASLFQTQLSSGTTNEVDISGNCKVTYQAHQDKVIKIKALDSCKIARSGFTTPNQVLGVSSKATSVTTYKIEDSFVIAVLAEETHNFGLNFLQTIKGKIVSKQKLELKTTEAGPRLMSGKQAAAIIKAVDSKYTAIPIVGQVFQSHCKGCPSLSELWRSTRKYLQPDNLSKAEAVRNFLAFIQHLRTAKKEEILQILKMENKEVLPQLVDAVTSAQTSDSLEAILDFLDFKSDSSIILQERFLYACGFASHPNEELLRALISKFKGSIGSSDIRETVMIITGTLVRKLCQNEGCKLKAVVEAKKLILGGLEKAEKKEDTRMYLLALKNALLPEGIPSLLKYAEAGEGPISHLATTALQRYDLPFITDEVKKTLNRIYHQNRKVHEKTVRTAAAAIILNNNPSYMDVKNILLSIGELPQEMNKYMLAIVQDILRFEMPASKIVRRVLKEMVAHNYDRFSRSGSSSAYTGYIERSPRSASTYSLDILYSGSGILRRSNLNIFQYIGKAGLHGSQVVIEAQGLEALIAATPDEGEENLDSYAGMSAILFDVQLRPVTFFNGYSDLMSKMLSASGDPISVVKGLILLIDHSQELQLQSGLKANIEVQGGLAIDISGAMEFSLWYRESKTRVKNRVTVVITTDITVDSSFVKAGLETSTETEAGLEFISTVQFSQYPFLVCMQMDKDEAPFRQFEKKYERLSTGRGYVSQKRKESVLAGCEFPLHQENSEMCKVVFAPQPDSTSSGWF
Sequence of human MTP (P07237 18-508 partner): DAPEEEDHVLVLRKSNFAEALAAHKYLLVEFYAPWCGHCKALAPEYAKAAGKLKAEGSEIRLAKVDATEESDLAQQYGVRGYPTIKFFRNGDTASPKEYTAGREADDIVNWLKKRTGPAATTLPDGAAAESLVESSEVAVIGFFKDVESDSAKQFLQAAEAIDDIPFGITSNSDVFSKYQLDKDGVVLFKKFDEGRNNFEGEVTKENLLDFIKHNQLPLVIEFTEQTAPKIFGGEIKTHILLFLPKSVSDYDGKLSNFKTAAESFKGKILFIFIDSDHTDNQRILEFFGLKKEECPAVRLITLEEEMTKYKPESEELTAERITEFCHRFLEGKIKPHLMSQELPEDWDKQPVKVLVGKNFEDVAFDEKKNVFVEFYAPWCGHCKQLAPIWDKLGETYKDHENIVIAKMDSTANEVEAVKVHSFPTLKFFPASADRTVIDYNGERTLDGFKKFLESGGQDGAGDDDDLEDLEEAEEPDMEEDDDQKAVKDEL

Row | SMILES | melting point | IC50 (human MTP)
1 | CC(=O)C(c1ccc(F)cc1)N1CCN(c2ccc(NC(=O)c3ccccc3-c3ccc(C(F)(F)F)cc3)cc2)CC1 (stereo not drawn) [Example 7, 4′-trifluoromethyl-biphenyl-2-carboxylic acid [4-(4-(4-fluoro-α-acetyl-benzyl)-piperazin-1-yl)-phenyl]-amide] | 200 to 202 °C | –
2 | COC(=O)C(c1ccccc1)N1CCN(c2ccc(NC(=O)c3ccccc3-c3ccc(C(F)(F)F)cc3)cc2)CC1 (stereo not drawn) [Example 11, 4′-Trifluoromethyl-biphenyl-2-carboxylic acid [4-(4-(α-(methoxcyarbonyl)-benzyl)-piperazin-1-yl)-phenyl]-amide] | 130 to 135 °C | 3.2 nM
3 | CC(c1ccccc1)N1CCN(c2ccc(NC(=O)c3ccccc3-c3ccc(C(F)(F)F)cc3)cc2)CC1 (stereo not drawn) [Example 1, 4′-Trifluoromethyl-biphenyl-2-carboxylic acid [4-(4-(α-methyl-benzyl)-piperazin-1-yl)-phenyl]-amide] | 194 to 196 °C | –
4 | O=C(Nc1ccc(N2CCN(C(C(=O)c3ccccc3)c3ccccc3)CC2)cc1)c1ccccc1-c1ccc(C(F)(F)F)cc1 (stereo not drawn) [Example 8, 4′-Trifluoromethyl-biphenyl-2-carboxylic acid [4-(4-(α-benzoyl-benzyl)-piperazin-1-yl)-phenyl]-amide] | 165 °C | 40 nM
5 | N#CC(c1ccccc1)N1CCN(c2ccc(NC(=O)c3ccccc3-c3ccc(C(F)(F)F)cc3)cc2)CC1 (stereo not drawn) [Example 5, 4′-Trifluoromethyl-biphenyl-2-carboxylic acid [4-(4-(α-cyano-benzyl)-piperazin-1-yl)-phenyl]-amide] | 204 °C | –
6 | O=C(Nc1ccc(N2CCN(C(c3ccccc3)c3noc(-c4ccccc4)n3)CC2)cc1)c1ccccc1-c1ccc(C(F)(F)F)cc1 (stereo not drawn) [Example 9, 4′-Trifluoromethyl-biphenyl-2-carboxylic acid [4-(4-(α(5-phenyl-[1,2,4]oxadiazol-3-yl)-benzyl)-piperazin-1-yl)-phenyl]-amide] | – | 5.6 nM
7 | N#Cc1cccc(C(c2ccc[nH]2)N2CCN(c3ccc(NC(=O)c4ccccc4-c4ccc(C(F)(F)F)cc4)cc3)CC2)c1 (stereo not drawn) [Example 17, 4′-Trifluoromethyl-biphenyl-2-carboxylic acid [4-(4-(3-cyano-α-(pyrrol-2-yl)-benzyl)-piperazin-1-yl)-phenyl]-amide] | 202 to 203 °C | –
8 | Cc1ccc(C(=O)Nc2ccc(N3CCN(C(C)c4cccc(C#N)c4)CC3)cc2)c(-c2ccc(C(F)(F)F)cc2)c1 (stereo not drawn) [Example 2, 5-Methyl-4′-trifluoromethyl-biphenyl-2-carboxylic acid [4-(4-(3-cyano-α-methyl-benzyl)-piperazin-1-yl)-phenyl]-amide] | 192 to 194 °C | 1 nM
9 | CC(c1cccc(C(F)(F)F)c1)N1CCN(c2ccc(NC(=O)c3ccccc3-c3ccc(C(F)(F)F)cc3)cc2)CC1 (stereo not drawn) [Example 4, 4′-Trifluoromethyl-biphenyl-2-carboxylic acid [4-(4-(3-trifluoromethyl-α-methyl-benzyl)-piperazin-1-yl)-phenyl]-amide] | 158 to 160 °C | –
10 | O=C(Nc1ccc(N2CCN(C(Cn3cccn3)c3ccccc3)CC2)cc1)c1ccccc1-c1ccc(C(F)(F)F)cc1 (stereo not drawn) [Example 10, 4′-Trifluoromethyl-biphenyl-2-carboxylic acid [4-(4-(α-((pyrazol-1-yl)-methyl)-benzyl)-piperazin-1-yl)-phenyl]-amide] | – | 157 nM
11 | O=C(Nc1ccc(N2CCN(C(C(=O)NCc3ccccn3)c3ccccc3)CC2)cc1)c1ccccc1-c1ccc(C(F)(F)F)cc1 (stereo not drawn) [Example 14, 4′-Trifluoromethyl-biphenyl-2-carboxylic acid [4-(4-(α-((pyridin-2-yl-methyl)-aminocarbonyl)-benzyl)-piperazin-1-yl)-phenyl]-amide] | 139 to 141 °C | 3 nM
